Source: the supplement of paper PMC11061612

Assays:
[1] = tested on: C-4-I (Cervical Carcinoma); assay: Bliss excess, mean over the matrix (fraction); higher = more synergy
How it was run: (§1)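 Cell lines grown in DMEM/F12 or RPMI with 10% FBS were plated in 1536-well plates and held 24 hours at 37°C, 5% CO2 before 72 hours of exposure to two-drug dose matrices, with DMSO typically at 0.2%. CellTiter-Glo 2.0 luminescence gave viability, which was converted to inhibition. Vehicle wells were set to 0 and blank wells to 1. Combination Emax is the second-highest inhibition in the matrix, and Bliss excess is the observed combination effect minus the expected EA + EB − EA·EB, where EA and EB are the single-agent effects.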

[2] = tested on: OSC-20 (Oral Cavity Carcinoma); assay: as above
How it was run: as §1

[3] = tested on: JVM-3 (B-Cell Non-Hodgkin's Lymphoma); assay: as above
How it was run: as §1

[4] = tested on: SCC-15 (Oral Cavity Carcinoma); assay: as above
How it was run: as §1

[5] = tested on: OVCAR-4 (Ovarian Carcinoma); assay: as above
How it was run: as §1

[6] = tested on: HSC-4 (Oral Cavity Carcinoma); assay: as above
How it was run: as §1

[7] = tested on: OE19 (Esophageal Adenocarcinoma); assay: as above
How it was run: as §1

[8] = tested on: NUGC-3 (Gastric Carcinoma); assay: as above
How it was run: as §1

[9] = tested on: NCI-H1915 (Non-Small Cell Lung Carcinoma); assay: as above
How it was run: as §1

[10] = tested on: VA-ES-BJ (Other Solid Carcinomas); assay: as above
How it was run: as §1

[11] = tested on: Ca9-22 (Head and Neck Carcinoma); assay: combination Emax (second highest fraction inhibited in the dose matrix, 72 h); higher = more inhibition; extreme values may be limits of the assay
How it was run: as §1

[12] = tested on: Caov-4 (Ovarian Carcinoma); assay: as above
How it was run: as §1

[13] = tested on: KYSE-450 (Esophageal Squamous Cell Carcinoma); assay: as above
How it was run: as §1

[14] = tested on: MLMA (Other Blood Carcinomas); assay: as above
How it was run: as §1

[15] = tested on: MIA-PaCa-2 (Pancreatic Carcinoma); assay: as above
How it was run: as §1

[16] = tested on: NCI-H358 (Lung Adenocarcinoma); assay: as above
How it was run: as §1

[17] = tested on: EoL-1-cell (Acute Myeloid Leukemia); assay: as above
How it was run: as §1

[18] = tested on: PANC-04-03 (Pancreatic Carcinoma); assay: as above
How it was run: as §1

NB69 (Neuroblastoma) = assay: as above
How it was run: as §1

TK10 (Kidney Carcinoma) = assay: as above
How it was run: as §1
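Throughout, for Bliss excess, mean over the matrix: after 72 h of two-drug dosing.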

Row | Structure (SMILES) | Bliss excess [1] | Bliss excess [2] | Bliss excess [3] | Bliss excess [4] | Bliss excess [5] | Bliss excess [6] | Bliss excess [7] | Bliss excess [8] | Bliss excess [9] | Bliss excess [10] | combination Emax [11] | combination Emax [12] | combination Emax [13] | combination Emax [14] | combination Emax [15] | combination Emax [16] | combination Emax [17] | combination Emax [18] | combination Emax (NB69 (Neuroblastoma)) | combination Emax (TK10 (Kidney Carcinoma))
1 | CN(CCO)CC[C@H](CSc1ccccc1)Nc1ccc(S(=O)(=O)NC(=O)c2ccc(N3CCC([C@@H](O)c4ccccc4-c4ccc(Cl)cc4)CC3)cc2)cc1S(=O)(=O)C(F)(F)F [AZD4320] + CCN(CCO)CCCOc1ccc2c(Nc3cc(CC(=O)Nc4cccc(F)c4)[nH]n3)ncnc2c1 [AZD2811] (first compound max 1 µM, 7x7, partner max 1 µM) | 0.0557 | -0.062 | 0.165 | 0.0101 | 0.045 | -0.0335 | -0.0349 | 0.0077 | 0.0393 | -0.0259 | 0.572 | 0.448 | 0.153 | 0.228 | 0.512 | 0.269 | 1 | 0.138 | 0.902 | 0.439
2 | Cc1cc2ncnn2cc1Nc1ncc2c(n1)n(C1CCOCC1)c(=O)n2C [AZD7648] + O=C(c1cc(Cc2n[nH]c(=O)c3ccccc23)ccc1F)N1CCN(C(=O)C2CC2)CC1 [Olaparib] (first compound max 10 µM, 7x7, partner max 10 µM) | 0.005 | 0.0194 | -0.0053 | -0.0408 | -0.0214 | -0.0448 | -0.0097 | -0.0175 | -0.0215 | -0.0416 | 0.113 | 0.199 | 0.0972 | 0.279 | 0.22 | 0.279 | 0.42 | 0.183 | 0.541 | 0.234
3 | CN(CCO)CC[C@H](CSc1ccccc1)Nc1ccc(S(=O)(=O)NC(=O)c2ccc(N3CCC([C@@H](O)c4ccccc4-c4ccc(Cl)cc4)CC3)cc2)cc1S(=O)(=O)C(F)(F)F [AZD4320] + Cn1cnc2c(F)c(Nc3ccc(Br)cc3Cl)c(C(=O)NOCCO)cc21 [Selumetinib] (first compound max 1 µM, 7x7, partner max 3 µM) | 0.135 | 0.0488 | -0.0225 | 0.042 | 0.0108 | 0.0732 | -0.0202 | 0.104 | 0.0324 |  | 0.593 | 0.617 | 0.386 | 0.496 | 0.61 | 0.564 | 1 | 0.406 | 0.998 | 0.402
4 | CN(CCO)CC[C@H](CSc1ccccc1)Nc1ccc(S(=O)(=O)NC(=O)c2ccc(N3CCC([C@@H](O)c4ccccc4-c4ccc(Cl)cc4)CC3)cc2)cc1S(=O)(=O)C(F)(F)F [AZD4320] + Cc1cc2ncnn2cc1Nc1ncc2c(n1)n(C1CCOCC1)c(=O)n2C [AZD7648] (first compound max 1 µM, 7x7, partner max 10 µM) | -0.0082 | -0.0548 | -0.0214 | -0.0152 | -0.0412 | -0.0592 | -0.0219 | -0.0234 | -0.0254 | -0.0364 | 0.163 |  | 0.111 | 0.474 | 0.178 | 0.186 | 1 | 0.229 | 0.801 | 0.444
5 | Cc1cc2ncnn2cc1Nc1ncc2c(n1)n(C1CCOCC1)c(=O)n2C [AZD7648] + COc1cc([C@@H]2c3cc4c(cc3[C@@H](O[C@@H]3O[C@@H]5CO[C@@H](C)O[C@H]5[C@H](O)[C@H]3O)[C@H]3COC(=O)[C@H]23)OCO4)cc(OC)c1O [Etoposide] (first compound max 10 µM, 7x7, partner max 10 µM) |  |  |  |  |  |  |  |  |  |  | 0.869 | 0.744 | 0.459 | 0.816 | 0.945 | 0.628 | 1 | 0.335 | 0.946 | 0.592
6 | CN(CCO)CC[C@H](CSc1ccccc1)Nc1ccc(S(=O)(=O)NC(=O)c2ccc(N3CCC([C@@H](O)c4ccccc4-c4ccc(Cl)cc4)CC3)cc2)cc1S(=O)(=O)C(F)(F)F [AZD4320] + Nc1ccn([C@@H]2O[C@H](CO)[C@@H](O)C2(F)F)c(=O)n1 [Gemcitabine] (first compound max 1 µM, 7x7, partner max 0.3 µM) |  |  |  |  |  |  |  |  |  |  | 0.927 | 0.685 | 0.202 | 0.896 | 0.771 | 0.396 | 1 | 0.461 | 0.997 | 0.301
7 | C[C@@H](c1ccc2nccn2c1)n1nnc2ncc(-c3cnn(C)c3)nc21 [Savolitinib] + Cc1c2c(nn1C)CSCc1cc(n(C)n1)CSc1cc(c3ccccc3c1)OCCCc1c(C(=O)O)n(C)c3c-2c(Cl)ccc13 [AZD5991] (first compound max 1 µM, 7x7, partner max 1 µM) | -0.111 | -0.0239 |  | -0.0222 | -0.0713 | -0.0864 | -0.093 | -0.0379 | -0.0587 | -0.0299 | 0.143 | 0.421 | 0.115 | 0.33 | 0.204 | 0.108 | 1 | 0.165 | 0.74 | 0.116
8 | N#Cc1cnc(Nc2cc(NC[C@H]3CNCCO3)c(C(F)(F)F)cn2)cn1 [SRA737] + O=c1[nH]cc(F)c(=O)[nH]1 [5-Fluorouracil] (first compound max 10 µM, 7x7, partner max 20 µM) |  |  |  |  |  |  |  |  |  |  | 0.606 | 0.749 | 0.379 | 0.77 | 0.252 | 0.631 | 0.994 | 0.474 | 0.805 | 0.551
9 | CN(CCO)CC[C@H](CSc1ccccc1)Nc1ccc(S(=O)(=O)NC(=O)c2ccc(N3CCC([C@@H](O)c4ccccc4-c4ccc(Cl)cc4)CC3)cc2)cc1S(=O)(=O)C(F)(F)F [AZD4320] + CC(=O)O[C@H]1C(=O)[C@@]2(C)[C@H]([C@H](OC(=O)c3ccccc3)[C@]3(O)C[C@H](OC(=O)[C@H](O)[C@@H](NC(=O)c4ccccc4)c4ccccc4)C(C)=C1C3(C)C)[C@]1(OC(C)=O)CO[C@@H]1C[C@@H]2O [Paclitaxel] (first compound max 1 µM, 7x7, partner max 3 µM) |  |  |  |  |  |  |  |  |  |  | 0.997 | 0.795 | 0.875 |  | 0.898 | 0.916 | 1 | 0.585 | 1 | 0.821
10 | C[C@@H](c1ccc2nccn2c1)n1nnc2ncc(-c3cnn(C)c3)nc21 [Savolitinib] + CC1(C)CCC(CN2CCN(c3ccc(C(=O)NS(=O)(=O)c4ccc(NCC5CCOCC5)c([N+](=O)[O-])c4)c(Oc4cnc5[nH]ccc5c4)c3)CC2)=C(c2ccc(Cl)cc2)C1 [Venetoclax] (first compound max 1 µM, 7x7, partner max 1 µM) | -0.0585 | -0.0521 |  | -0.0613 | -0.0791 | -0.0776 | -0.0377 | -0.0666 | -0.0456 | -0.0433 | 0.193 | 0.12 | 0.0763 | 0.157 | 0.164 | 0.128 | 0.86 | 0.202 | 0.372 | 0.106
11 | N#Cc1cnc(Nc2cc(NC[C@H]3CNCCO3)c(C(F)(F)F)cn2)cn1 [SRA737] + Nc1ccn([C@@H]2O[C@H](CO)[C@@H](O)C2(F)F)c(=O)n1 [Gemcitabine] (first compound max 10 µM, 7x7, partner max 0.3 µM) |  |  |  |  |  |  |  |  |  |  | 0.867 | 0.856 | 0.83 | 0.818 | 0.951 | 0.665 | 1 | 0.597 | 0.983 | 0.549
12 | Cc1nc(Nc2ncc(C(=O)Nc3c(C)cccc3Cl)s2)cc(N2CCN(CCO)CC2)n1 [Dasatinib] + CC(=O)Nc1cccc(-n2c(=O)n(C3CC3)c(=O)c3c(Nc4ccc(I)cc4F)n(C)c(=O)c(C)c32)c1 [Trametinib] (first compound max 2 µM, 7x7, partner max 1 µM) | 0.0328 | -0.0148 |  | -0.0213 | 0.0286 | -0.0681 | -0.063 | 0.0374 | 0.0564 | -0.033 | 0.878 | 0.743 | 0.382 | 0.675 | 0.894 | 0.69 | 1 | 0.781 | 1 | 0.766
13 | N#Cc1cnc(Nc2cc(NC[C@H]3CNCCO3)c(C(F)(F)F)cn2)cn1 [SRA737] + C=CCn1c(=O)c2cnc(Nc3ccc(N4CCN(C)CC4)cc3)nc2n1-c1cccc(C(C)(C)O)n1 [AZD1775] (first compound max 10 µM, partner max 1 µM) |  |  |  |  |  |  |  |  |  |  | 0.957 | 0.854 | 0.906 | 0.826 | 0.911 | 0.763 | 1 | 0.543 | 0.969 | 0.653
14 | COc1cc2ncnc(Nc3ccc(F)c(Cl)c3)c2cc1OCCCN1CCOCC1 [Gefitinib] + CC(C)n1c(=O)n(C)c2cnc3cc(F)c(-c4ccc(OCCCN5CCCCC5)nc4)cc3c21 [AZD1390] (first compound max 10 µM, 7x7, partner max 0.3 µM) | -0.042 | -0.0691 |  | -0.0571 | -0.0561 | -0.0847 | -0.0181 | -0.0515 | -0.0433 | -0.0513 | 0.625 | 0.171 | 0.338 | 0.33 | 0.208 | 0.536 | 0.571 | 0.347 | 0.369 | 0.445
15 | N#Cc1cnc(Nc2cc(NC[C@H]3CNCCO3)c(C(F)(F)F)cn2)cn1 [SRA737] + CCc1c2c(nc3ccc(O)cc13)-c1cc3c(c(=O)n1C2)COC(=O)[C@]3(O)CC [SN-38] (first compound max 10 µM, 7x7, partner max 0.3 µM) |  |  |  |  |  |  |  |  |  |  | 0.954 | 0.9 | 0.94 | 0.77 | 0.942 | 0.8 | 0.994 | 0.57 | 0.991 | 0.682
